One molecule from BindingDB's records for doi:10.1016/s0960-894x(98)00672-6 (University of Maryland, 1999) can be followed below.

The target in the test is Guanine deaminase (Oryctolagus cuniculus). The experiment in a line: Compound was tested for its inhibitory effect on rabbit liver guanase.

`O=c1cnc2c(ncn2Cc2ccccc2)c(=O)[nH]1` [3-Benzyl-3H-imidazo[4,5-e][1,4]diazepine-6,8-dione]: the affinity, expressed as Ki, was 227 µM.
